Holding throughout (type): cell-based
The subject of assay [1] is PSMA coated beads. In words: Molecule induced phagocytosis of PSMA coated beads by IFN-γ primed U937 cells. To be noted: for phagocytosis of PSMA coated beads (comparison in words): compared with the previous generation SyAM-P; for Observed % Phagocytosis (50 nM SyAM-P2): beads. As to the method:
(§1) Three days before the experiments, a plate of U937 cells (approximately 60% confluent) was passed into a new Petri dish (10 mL colored RPMI growth media total volume). IFN-γ (20 μL, 100 μg/mL in DPBS) was added, and the cells were maintained in an incubator (37° C., 24 h). The cells were pelleted after 24 hours and resuspended in 10 mL of IFN-γ (20 uL, 100 ug/mL in DPBS) and maintained in an incubator (37° C., 24 h)
For phagocytosis: cells were transferred into a Falcon tube, and DiD (19 uL, final concentration=1.9 μM) was added. The cells were maintained in an incubator (37° C., 30 min), pelleted, aspirated, resuspended in RPMI growth media (10 mL), and split equally into two Petri dishes. To each dish were added additional colored RPMI growth media (5 mL) and IFN-γ (20 μL, 100 μg/mL in DPBS), and maintained in an incubator (37° C., 24 h).
[…] streptavidin fluoresbrite YG microspheres from Polysciences were incubated with 4× concentration of avi-tagged PSMA for 30 minutes at room temperature in DPBS (concentration of avi-tagged PSMA is dependent on biotin loading capacity of microspheres). Beads were washed with DPBS 2× and resuspended in color-free ADCP media at 1.6 million beads/mL.
Phagocytosis: 25 uL of bead solution was added to 25 uL of ADCP media either with or without molecules at various concentrations in an eppendorf tube. To this 50 uL of 4 million/mL primed U937 cells were added, gently mixed and then centrifuged at […] for 2 minutes. The caps were opened and placed in an incubator (37° C., 1 hr) at which point the eppendorfs were closed and placed on ice. Samples were vortexed and run on an Accuri C6 flow cytometer for a total of 50 k counts.
Data analysis: For each experiment 50,000 events were counted. Forward and side scatter plots were optimally gated to remove debris particles and cellular aggregates. On a plot of FL-2 vs FL-4 the following populations were counted: […]

Assay [2] has as its system PSMA coated beads. In words: ROS production (superoxide burst, lucigenin) by primed U937 cells against PSMA coated beads. As to the method:
as §1
For ROS production cells were resuspended in RPMI growth media (10 mL), and split equally into two Petri dishes. To each dish were added additional colored RPMI growth media (5 mL) and IFN-γ (20 μL, 100 μg/mL in DPBS), and maintained in an incubator (37° C., 24 h)
Primed U937 were suspended in color-free ADCP media at a concentration of 3×10^5 U937 cells and mixed with 10^5 PSMA coated beads and various concentrations of molecules in a 96 well plate in a volume of 90 uL. To each well was added 10 μl of 2.5 mM lucigenin (Tokyo Chemicals) solution to bring the total volume to 100 μl. The plate was centrifuged at 200 rcf for 2 minutes (PLATE SPINNER). The chemiluminescence was then measured at two minute intervals by plate reader (Biotek Synergy 2) for 60 to 90 minutes.

Assay [3] deals with RM1.PGLS cells. In words: Phagocytosis of PSMA expressing RM1.PGLS cells by IFN-γ primed U937 cells. To be noted: for phagocytosis of RM1.PGLS cells (in words): IFN-γ primed U937 effectors. As to the method: Target cell passing: Three days before the experiments, a plate of target cells, RM1.PGLS cells were passed into a new flask.
Effector cell priming: Three days before the experiments, a plate of U937 cells (approximately 60% confluent) was passed into a new Petri dish (10 mL colored ADCP media total volume). IFN-γ (20 μL, 100 μg/mL in DPBS) was added, and the cells were maintained in an incubator (37° C., 24 h). The cells were transferred into a Falcon tube, and DiD (19 uL, final concentration=1.9 μM) was added. The cells were maintained in an incubator (37° C., 30 min), pelleted, aspirated, resuspended in colored ADCP media (10 mL), and split equally into two Petri dishes. To each dish were added additional colored ADCP media (5 mL) and IFN-γ (20 μL, 100 μg/mL in DPBS), and the cells were maintained in an incubator (37° C., 24 h).
Target cell preparation: To a plate of target cells (60-80% confluent RM1.PGLS cells 10 mL total media volume) was added DiO (20 μL, final concentration=2 μM). The cells were maintained in an incubator (37° C., 30 min), aspirated, and washed with colored ADCP media (3×10 mL). Colored ADCP media (10 mL) was added. The cells were maintained in an incubator (37° C., 2 h), detached and resuspended in color-free ADCP media at a concentration of 0.5 million cells per mL.
Effector cell preparation: Both dishes of primed U937 cells were transferred into a Falcon tube, pelleted, aspirated, resuspended in color-free ADCP media (10 mL), counted, and diluted with color-free ADCP media to give a final concentration of 2 million cells per mL.
Phagocytosis: All conditions were run in triplicate. For each experiment, into a sterile 2 mL Eppendorf tube were added color-free ADCP media (25 μL) containing either various concentrations of SyAM-Px or ARM-P8/Anti-DNP antibody, target cells (25 μL=12,500 cells), and effector cells (50 μL=100,000 cells), to give an effector-to-target ratio of 8:1. Tubes were gently agitated by hand. The cells were pelleted (2 min, 1100 rpm). The tubes were opened, maintained in an incubator (37° C., 1 h), resuspended by briefly agitating with a vortex, and analyzed by flow cytometry.

Assay [4] deals with RM1.PGLS cells. Put plainly: Superoxide burst (lucigenin) by primed U937 cells against RM1.PGLS cells. To be noted: IFN-γ primed U937 effectors. The source says:
Since SyAM-P1 was able to induce effector-cell mediated responses against target protein coated beads, the inventors then evaluated if the molecule can elicit the effects against PSMA expressing cells. To that end, the inventors evaluated the SyAM-P1 induced immune responses by primed U937 effector cells against PSMA expressing RM1.PGLS cells. They tested the U937-mediated immune effects by evaluating both superoxide burst and phagocytosis of effector cells, analogous to the protein coated bead experiments. In this experiment, IFN-γ primed U937 cells were incubated with PSMA expressing RM1.PGLS cells, and treated with various concentrations of SyAM-P1. The resulting superoxide burst response was measured using the lucigenin assay (data not shown). Additionally, primed U937 cells (stained with DiD, an FL4 membrane dye) were incubated with target RM1.PGLS cells (stained with […], an FL1 membrane dye), in the presence of various concentrations of SyAM-P 1. The resulting phagocytosis—indicated by FL1 and FL4 double positive cells—was measured using two-color flow-cytometry. As a positive control, ARM-P8 combined with anti-DNP antibodies was utilized. […] The positive response seen with the Arm-P8 control, could potentially be attributed to the ability of antibodies to ligate both FcγRI and FcγRIIA on the immune effector cells, increasing immune signaling and phagocytic responses.

Consider `CC(=O)N[C@H](C(=O)N[C@@H](CC(N)=O)C(=O)N[C@@H](CO)C(=O)N[C@H]1CSSC[C@@H](C(=O)NCC(=O)N[C@@H](CC(=O)O)C(=O)N[C@@H](CC(=O)O)C(=O)N[C@@H](CCCCNC(=O)CCCC(=O)NCCOCCOCCOCC(=O)NCCCC[C@H](NC(=O)COCCOCCOCCNC(=O)CCCC(=O)NCCCC[C@H](NC(=O)[C@H](CC(=O)O)NC(=O)[C@H](CC(=O)O)NC(=O)CNC(=O)[C@@H]2CSSC[C@H](NC(=O)[C@H](CO)NC(=O)[C@H](CC(N)=O)NC(=O)[C@@H](NC(C)=O)C(C)C)C(=O)N[C@@H](CC(C)C)C(=O)N[C@@H](CC(C)C)C(=O)N[C@@H](CC(C)C)C(=O)N3CCC[C@H]3C(=O)N[C@@H](CC(N)=O)C(=O)N[C@@H](CC(C)C)C(=O)N[C@@H](CC(C)C)C(=O)NCC(=O)N2)C(=O)N[C@@H](CCCCNC(=O)CCCC[C@@H]2SC[C@@H]3NC(=O)N[C@@H]32)C(N)=O)C(=O)NCc2cn(-c3cc(C(=O)NCCCCCC(=O)NCCCCCC(=O)NCCCCCC(=O)NCCCCCC(=O)NCCCCCC(=O)NCCCCCC(=O)NCc4cn(CCCC[C@H](NC(=O)N[C@@H](CCC(=O)O)C(=O)O)C(=O)O)nn4)cc(C(=O)NCCCCCC(=O)NCCCCCC(=O)NCCCCCC(=O)NCCCCCC(=O)NCCCCCC(=O)NCCCCCC(=O)NCc4cn(CCCC[C@H](NC(=O)N[C@@H](CCC(=O)O)C(=O)O)C(=O)O)nn4)c3)nn2)C(=O)N[C@@H](CCCCNC(=O)CCCC[C@@H]2SC[C@@H]3NC(=O)N[C@@H]32)C(N)=O)NC(=O)CNC(=O)[C@H](CC(C)C)NC(=O)[C@H](CC(C)C)NC(=O)[C@H](CC(N)=O)NC(=O)[C@@H]2CCCN2C(=O)[C@H](CC(C)C)NC(=O)[C@H](CC(C)C)NC(=O)[C@H](CC(C)C)NC1=O)C(C)C` [SyAM-P3], for which the “phagocytosis of PSMA coated beads (comparison in words)” value in the assay on PSMA coated beads [1] is on record as “much greater immune response”. For the same molecule, the “superoxide production without target PSMA+ beads” value with PSMA coated beads [2] (SyAM-P3 alone, various concentrations) was “little to no background superoxide detection”. In addition, in the assay with PSMA coated beads [2] (compared with SyAM-P2), the “superoxide burst against PSMA coated beads (comparison in words)” value was “much greater immune response”. For the same molecule, the “phagocytosis of RM1.PGLS cells (in words)” value in the assay with RM1.PGLS cells [3] is “effectively induce U937-mediated phagocytosis, in a dose dependent manner”. Moreover, in the assay on RM1.PGLS cells [3] (RM1.PGLS cells), the “concentration of peak phagocytosis response” value was found to be 10 nM. Moreover, the “phagocytosis of RM1.PGLS cells compared with ArmP8 plus anti-DNP antibody” value with RM1.PGLS cells [3] (anti-DNP antibody 133 nM, background subtracted) was “phagocytosis at significantly less concentration than for ArmP8”. For the same molecule, the “superoxide burst against RM1.PGLS cells (in words)” value in the assay with RM1.PGLS cells [4] is reported as “No response”.

With `CC(=O)N[C@H](C(=O)N[C@@H](CC(N)=O)C(=O)N[C@@H](CO)C(=O)N[C@H]1CSSC[C@@H](C(=O)NCC(=O)N[C@@H](CC(=O)O)C(=O)N[C@@H](CC(=O)O)C(=O)N[C@@H](C)C(=O)N[C@@H](CCCCNC(=O)CCCCc2cn(-c3cc(C(=O)NCCCCCC(=O)NCCCCCC(=O)NCCCCCC(=O)NCCCCCC(=O)NCCCCCC(=O)NCCCCCC(=O)NCc4cn(CCCC[C@H](NC(=O)N[C@@H](CCC(=O)O)C(=O)O)C(=O)O)nn4)cc(C(=O)NCCCCCC(=O)NCCCCCC(=O)NCCCCCC(=O)NCCCCCC(=O)NCCCCCC(=O)NCCCCCC(=O)NCc4cn(CCCC[C@H](NC(=O)N[C@@H](CCC(=O)O)C(=O)O)C(=O)O)nn4)c3)nn2)C(=O)N[C@@H](CCCCNC(=O)CCCC[C@@H]2SC[C@@H]3NC(=O)N[C@@H]32)C(N)=O)NC(=O)CNC(=O)[C@H](CC(C)C)NC(=O)[C@H](CC(C)C)NC(=O)[C@H](CC(N)=O)NC(=O)[C@@H]2CCCN2C(=O)[C@H](CC(C)C)NC(=O)[C@H](CC(C)C)NC(=O)[C@H](CC(C)C)NC1=O)C(C)C` [SyAM-P2], the “Observed % Phagocytosis (50 nM SyAM-P2)” value in the assay with PSMA coated beads [1] (labeling 2.9 pmol/bead, calculated 1972 PSMA/um^2) is listed as 10.1%; in the assay with PSMA coated beads [1] (labeling 5.7 pmol/bead, calculated 3876 PSMA/um^2), 24.0%; in the assay on PSMA coated beads [1] (labeling 8.2 pmol/bead, measured 5577 PSMA/um^2) it was 46.2%; with RM1.PGLS cells [3] (target RM1.PGLS cells, measured 918 PSMA/um^2, 50 nM) it was 0%. Further, the “phagocytosis of PSMA coated beads (comparison in words)” value in the assay with PSMA coated beads [1] is recorded as “much higher level of phagocytosis”. Further, the “phagocytosis of RM1.PGLS cells (in words)” value in the assay on RM1.PGLS cells [3] is “no response”. In the assay with RM1.PGLS cells [4], the “superoxide burst against RM1.PGLS cells (in words)” value was “no response”.

Consider `O=C(O)CCC(CP(=O)(O)O)C(=O)O` (centres unmarked) [2-PMPA, reference compound], for which, in the assay on PSMA coated beads [1] (50 nM SyAM-P3, increasing inhibitor concentrations), the “inhibition of SyAM-P3 induced phagocytosis of PSMA coated beads” value is “inhibition of phagocytosis”. Further, in the assay with PSMA coated beads [1] (data not shown), the “effect of inhibitor on SyAM-P1 induced immune effector responses (superoxide burst, phagocytosis of beads)” value is given as “abrogated”. The “inhibition of SyAM-P3 induced phagocytosis of RM1.PGLS cells” value with RM1.PGLS cells [3] (6.25 nM SyAM-P3, increasing inhibitor concentrations) was “inhibition of phagocytosis”.
